compound: COc1cccc2cc(-c3nc([C@H]4CC[C@H](C(=O)O)CC4)n4ncnc(N)c34)[nH]c12 [OSI-027] + CS(=O)(=O)CCNCc1ccc(-c2ccc3ncnc(Nc4ccc(OCc5cccc(F)c5)c(Cl)c4)c3c2)o1 [Lapatinib] (partner 2 µM); experiment: relative viability (nuclei count vs DMSO), 5 days (fraction); higher = more cells survive; conditions: first compound 0.01 µM
Outline: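 Nuclei were stained with Hoechst during a one-step fixation (final 0.05% Triton X-100, 1% formaldehyde, 1 ug/ml Hoechst) carried out 5 days after dosing, then counted on 4× images. The cells, lung cancer lines in 1536-well plates, had been dosed by pin tool the day after seeding with one drug alone or a fixed anchor-drug dose plus five library-drug doses (not always all listed) in √10 steps. Relative viability is the nuclei count in treated wells divided by that in vehicle wells, and each value is the median of duplicate plates.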

| Cell Line | relative viability |
| --- | --- |
| NCI-H2126 | 0.771 |
| EPLC-272H | 1.12 |
| NCI-H1755 | 1.01 |
| NCI-H2023 | 0.735 |
| NCI-H1650 | 0.76 |
| NCI-H1793 | 0.619 |
| H3255 | 0.22 |
| NCI-H1975 | 0.897 |
| PC-14 | 0.3 |
| NCI-H1299 | 1.02 |
| NCI-H1437 | 0.807 |
| HOP-62 | 1.1 |
| HCC-44 | 1.05 |
| BEN | 0.626 |
| LOU-NH91 | 0.727 |
| NCI-H661 | 0.509 |
| NCI-H1651 | 0.842 |

| Cell Line | relative viability |
| --- | --- |
| PC-3 [JPC-3] | 0.452 |
| SW 1573 | 0.941 |
| LK-2 | 0.861 |
| NCI-H2405 | 1.03 |
| NCI-H1703 | 1.33 |
| NCI-H1993 | 0.786 |
| NCI-H1355 | 1.13 |
| HCC-366 | 1.25 |
| NCI-H1915 | 1.03 |
| NCI-H838 | 0.937 |
| Calu-6 | 1.06 |
| NCI-H1563 | 0.846 |
| NCI-H1792 | 0.749 |
| EBC-1 | 0.187 |
| A549 | 1.1 |
| IA-LM | 0.765 |
| HCC-78 | 0.6 |

same assay, conditions: first compound 0.03162 µM

| Cell Line | relative viability |
| --- | --- |
| NCI-H2126 | 0.814 |
| EPLC-272H | 0.965 |
| NCI-H1755 | 1.06 |
| NCI-H2023 | 0.663 |
| NCI-H1650 | 0.725 |
| NCI-H1793 | 0.65 |
| H3255 | 0.269 |
| NCI-H1975 | 0.864 |
| PC-14 | 0.306 |
| NCI-H1299 | 1.04 |
| NCI-H1437 | 0.756 |
| HOP-62 | 1.09 |
| HCC-44 | 0.975 |
| BEN | 0.529 |
| LOU-NH91 | 0.702 |
| NCI-H661 | 0.519 |
| PC-3 [JPC-3] | 0.454 |

| Cell Line | relative viability |
| --- | --- |
| SW 1573 | 1.14 |
| LK-2 | 0.789 |
| NCI-H2405 | 0.996 |
| NCI-H1703 | 1.1 |
| NCI-H1993 | 0.808 |
| NCI-H1355 | 0.957 |
| HCC-366 | 1.1 |
| NCI-H1915 | 1.07 |
| NCI-H838 | 0.975 |
| Calu-6 | 1.06 |
| NCI-H1563 | 1.05 |
| NCI-H1792 | 0.826 |
| EBC-1 | 0.217 |
| A549 | 0.878 |
| IA-LM | 0.697 |
| HCC-78 | 0.77 |

same assay, conditions: first compound 0.1 µM

| Cell Line | relative viability |
| --- | --- |
| NCI-H2126 | 0.728 |
| EPLC-272H | 0.699 |
| NCI-H1755 | 1.01 |
| NCI-H2023 | 0.567 |
| NCI-H1650 | 0.643 |
| NCI-H1793 | 0.559 |
| H3255 | 0.234 |
| NCI-H1975 | 0.958 |
| PC-14 | 0.293 |
| NCI-H1299 | 1.04 |
| NCI-H1437 | 0.807 |
| HOP-62 | 0.848 |
| HCC-44 | 0.93 |
| BEN | 0.419 |
| LOU-NH91 | 0.626 |
| NCI-H661 | 0.453 |
| NCI-H1651 | 0.728 |

| Cell Line | relative viability |
| --- | --- |
| PC-3 [JPC-3] | 0.412 |
| SW 1573 | 1.05 |
| LK-2 | 0.609 |
| NCI-H2405 | 0.798 |
| NCI-H1703 | 0.889 |
| NCI-H1993 | 0.773 |
| NCI-H1355 | 0.873 |
| HCC-366 | 1.16 |
| NCI-H1915 | 0.918 |
| NCI-H838 | 0.868 |
| Calu-6 | 0.953 |
| NCI-H1563 | 0.745 |
| NCI-H1792 | 0.815 |
| EBC-1 | 0.223 |
| A549 | 0.764 |
| IA-LM | 0.499 |
| HCC-78 | 0.472 |

same assay, conditions: first compound 0.3162 µM

| Cell Line | relative viability |
| --- | --- |
| NCI-H2126 | 0.563 |
| EPLC-272H | 0.664 |
| NCI-H1755 | 0.817 |
| NCI-H2023 | 0.393 |
| NCI-H1650 | 0.646 |
| NCI-H1793 | 0.264 |
| H3255 | 0.183 |
| NCI-H1975 | 0.688 |
| PC-14 | 0.255 |
| NCI-H1299 | 1.01 |
| NCI-H1437 | 0.69 |
| HOP-62 | 0.849 |
| HCC-44 | 0.85 |
| BEN | 0.355 |
| LOU-NH91 | 0.598 |
| NCI-H661 | 0.334 |
| NCI-H1651 | 0.725 |

| Cell Line | relative viability |
| --- | --- |
| PC-3 [JPC-3] | 0.327 |
| SW 1573 | 0.989 |
| LK-2 | 0.385 |
| NCI-H2405 | 0.852 |
| NCI-H1703 | 0.736 |
| NCI-H1993 | 0.785 |
| NCI-H1355 | 0.561 |
| HCC-366 | 0.764 |
| NCI-H1915 | 0.885 |
| NCI-H838 | 0.584 |
| Calu-6 | 0.829 |
| NCI-H1563 | 0.757 |
| NCI-H1792 | 0.739 |
| EBC-1 | 0.199 |
| A549 | 0.497 |
| IA-LM | 0.193 |
| HCC-78 | 0.787 |

same assay, conditions: first compound 1 µM

| Cell Line | relative viability |
| --- | --- |
| NCI-H2126 | 0.529 |
| EPLC-272H | 0.55 |
| NCI-H1755 | 0.579 |
| NCI-H2023 | 0.18 |
| NCI-H1650 | 0.392 |
| NCI-H1793 | 0.26 |
| H3255 | 0.234 |
| NCI-H1975 | 0.401 |
| PC-14 | 0.179 |
| NCI-H1299 | 0.645 |
| NCI-H1437 | 0.312 |
| HOP-62 | 0.855 |
| HCC-44 | 0.444 |
| BEN | 0.281 |
| LOU-NH91 | 0.482 |
| NCI-H661 | 0.279 |
| NCI-H1651 | 0.371 |
| PC-3 [JPC-3] | 0.298 |
| SW 1573 | 0.636 |
| LK-2 | 0.268 |
| NCI-H2405 | 0.539 |
| NCI-H1703 | 0.365 |

From the supplement of paper PMC10307832
